Assay results taken from patent US20260200919A1, “SUBSTITUTED AMINOPYRIDINE COMPOUNDS AND METHODS OF TREATING DISEASE USING SAME” (Atavistik Bio, Inc., priority 2023, published 2026).

Experiments:
[1] = target: T1, human recombinant kinase full-length AKT1 E17K (Homo sapiens, UniProt P31749, E17K); assay: AKT1 E17K kinase assay (TR-FRET, Lance); type: biochemical; details: 0.6 nM AKT1 E17K, 50 nM Ulight-CREBtide, either 50 μM ATP or 2 mM ATP (not specified which), 60 min at RT
T1 construct: Purified human recombinant kinase full-length AKT1 E17K was expressed in insect cells; made in house; host or cells: insect cells
Summary of the method: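 Full-length human AKT1 E17K (insect cell-expressed, PDPK1-activated; 0.6 nM) with 50 nM ULight-CREBtide in HEPES pH 7.5 with MgCl2 and DTT. ATP at 50 μM or 2 mM, 1% DMSO, 10-point dose response, 60 min at RT.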

[2] = target: T2, human recombinant kinase full-length wildtype AKT1 (Homo sapiens, UniProt P31749); assay: AKT1 kinase assay (wildtype, TR-FRET, Lance); type: biochemical; details: 0.6 nM wildtype AKT1, 50 nM Ulight-CREBtide, either 50 μM ATP or 2 mM ATP (not specified which), 60 min at RT
T2 construct: Purified human recombinant kinase full-length wildtype AKT1 was expressed in insect cells; made in house; host or cells: insect cells
Summary of the method: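 Insect-cell-expressed AKT1, activated in vitro by PDPK1, was used at 0.6 nM with 50 nM Ulight-CREBtide and 50 μM or 2 mM ATP in 50 mM HEPES pH 7.5, 1% DMSO, over a 10-point dose response.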

T1 sequence (P31749 whole entry E17K): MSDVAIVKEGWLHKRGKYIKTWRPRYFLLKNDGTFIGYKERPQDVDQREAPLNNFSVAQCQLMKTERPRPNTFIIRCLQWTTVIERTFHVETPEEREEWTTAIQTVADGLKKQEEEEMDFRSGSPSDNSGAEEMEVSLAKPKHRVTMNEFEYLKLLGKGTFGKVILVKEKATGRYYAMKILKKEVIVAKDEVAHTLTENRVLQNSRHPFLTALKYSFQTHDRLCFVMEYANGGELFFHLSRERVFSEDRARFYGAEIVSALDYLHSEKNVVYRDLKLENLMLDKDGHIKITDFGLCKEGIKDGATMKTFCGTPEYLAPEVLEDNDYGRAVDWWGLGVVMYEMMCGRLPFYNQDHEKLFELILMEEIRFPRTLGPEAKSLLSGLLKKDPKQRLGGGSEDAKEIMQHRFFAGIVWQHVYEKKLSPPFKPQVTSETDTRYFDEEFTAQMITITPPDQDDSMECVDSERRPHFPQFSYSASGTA
T2 sequence (P31749 whole entry): as the sequence (P31749 whole entry E17K) above, with K17E counted along it

IC50 [1] [nM]	IC50 [2] [nM]	Structure (SMILES)
200 to 500	< 500	Nc1ncccc1-c1nc2cc(-c3cccnc3)cnc2n1-c1ccc(CNC(=O)c2ccc(CCC(=O)O)cc2)cc1 [Compound 92, 3-(4-((4-(2-(2-aminopyridin-3-yl)-6-(pyridin-3-yl)-3H-imidazo[4,5-b]pyridin-3-yl)benzyl)carbamoyl)phenyl) propanoic acid]
> 500	< 500	COC(=O)CCc1cccc(C(=O)NCc2ccc(-n3c(-c4cccnc4N)nc4cc(-c5cccnc5)cnc43)cc2)c1 [Compound 93, methyl 3-(3-((4-(2-(2-aminopyridin-3-yl)-6-(pyridin-3-yl)-3H-imidazo[4,5-b]pyridin-3-yl)benzyl)carbamoyl)phenyl) propanoate]
> 500	< 500	Nc1ncccc1-c1nc2cc(-c3cccnc3)cnc2n1-c1ccc(CNC(=O)c2cccc(CCC(=O)O)c2)cc1 [Compound 94, 3-(3-((4-(2-(2-aminopyridin-3-yl)-6-(pyridin-3-yl)-3H-imidazo[4,5-b]pyridin-3-yl)benzyl)carbamoyl)phenyl) propanoic acid]
200 to 500	< 500	Nc1ncccc1-c1nc2ccc(-c3cccnc3)nc2n1-c1ccc(CNC(=O)c2ccc(CC(=O)O)cc2)cc1 [Compound 95, 2-(4-((4-(2-(2-aminopyridin-3-yl)-5-(pyridin-3-yl)-3H-imidazo[4,5-b]pyridin-3-yl)benzyl)carbamoyl)phenyl) acetic acid]
200 to 500	< 500	Nc1ncccc1-c1nc2ccc(-c3cccnc3)nc2n1-c1ccc(CNC(=O)c2cccc(CC(=O)O)c2)cc1 [Compound 96, 2-(3-((4-(2-(2-aminopyridin-3-yl)-5-(pyridin-3-yl)-3H-imidazo[4,5-b]pyridin-3-yl)benzyl)carbamoyl)phenyl) acetic acid]
> 500	> 500	NC(=O)c1cnc2c(c1)nc(-c1cccnc1N)n2-c1ccc(CNC(=O)c2cccc(CC(=O)O)c2)cc1 [Compound 97, 2-[3-[[4-[2-(2-amino-3-pyridyl)-6-carbamoyl-imidazo[4,5-b]pyridin-3-yl]phenyl]methylcarbamoyl]phenyl]acetic acid]
> 500	< 500	Nc1ncccc1-c1nc2cc(C(F)(F)F)cnc2n1-c1ccc(CNC(=O)c2ccc(C(=O)O)cc2)cc1 [Compound 98, 4-((4-(2-(2-aminopyridin-3-yl)-6-(trifluoromethyl)-3H-imidazo[4,5-b]pyridin-3-yl)benzyl)carbamoyl)benzoic acid]
> 500	< 500	Nc1ncccc1-c1nc2ccc(C(F)(F)F)nc2n1-c1ccc(CNC(=O)c2ccc(C(=O)O)cc2)cc1 [Compound 99, 4-((4-(2-(2-aminopyridin-3-yl)-5-(trifluoromethyl)-3H-imidazo[4,5-b]pyridin-3-yl)benzyl)carbamoyl)benzoic acid]
> 500	> 500	COC(=O)Cc1cccc(C(=O)NCc2ccc(-n3c(-c4cccnc4N)nc4cccnc43)cc2)c1 [Compound 100, methyl 2-(3-((4-(2-(2-aminopyridin-3-yl)-3H-imidazo[4,5-b]pyridin-3-yl)benzyl)carbamoyl)phenyl)acetate]
> 500	> 500	Nc1ncccc1-c1nc2cccnc2n1-c1ccc(CNC(=O)c2cccc(CC(=O)O)c2)cc1 [Compound 101, 2-(3-((4-(2-(2-aminopyridin-3-yl)-3H-imidazo[4,5-b]pyridin-3-yl)benzyl)carbamoyl)phenyl) acetic acid]
> 500	< 500	COc1ccc2nc(-c3cccnc3N)n(-c3ccc(CNC(=O)c4ccc(C(=O)O)cc4C)cc3)c2c1 [Compound 102, 4-((4-(2-(2-aminopyridin-3-yl)-6-methoxy-1H-benzo[d]imidazol-1-yl)benzyl)carbamoyl)-3-methylbenzoic acid]
> 500	> 500	COc1ccc2nc(-c3cccnc3N)n(-c3ccc(CNC(=O)c4cccc(C(=O)O)c4F)cc3)c2c1 [Compound 103, 3-((4-(2-(2-aminopyridin-3-yl)-6-methoxy-1H-benzo[d]imidazol-1-yl)benzyl)carbamoyl)-2-fluorobenzoic acid]
